In patent US20020137929A1, “1 - (3-heterocyclylphenyl) isothiourea, -isourea, -guanidine and -amidine herbicidal agents” (Intellectual Property Department, BASF Aktiengesellschaft, priority 1998, published 2002):

Experiments:
[1] = test system: ORYSAT (Rice, Tebonnet); test: Rice tolerance to post-transplant applications, flooded paddy conditions (Table III); format: in vivo, Oryza sativa, (L.) Tebonnet
Procedure, shortened: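 Injury scored 0-9 by eye against untreated control, judging stand, vigor, malformation, size and chlorosis, three to four weeks after treatment. Compound in 50/50 aqueous/acetone, about 0.0313 to 0.500 kg/ha, was applied to paddy water (1.5 to 3 cm depth) three days after transplanting paired ten-day-old Tebonnet rice seedlings.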

[2] = test system: TRZAWR (Wheat, Winter, cv Riband); test: Postemergence herbicidal evaluation; format: in vivo, Triticum aestivum; details: for TRZAWR herbicidal rating: postemergence
Procedure, shortened: (§1)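 Rate range approx. 0.0156–0.500 kg/ha. Foliar application at 40 psi to ~2-week seedlings; surfactant 0.5% TWEEN 20 in 50/50 acetone/water. Evaluation 4–5 wk post-treatment by 0–9 visual injury score, means of replicate tests.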

[3] = test system: ORYSAT (Rice, Tebonnet); test: Rice tolerance to post-transplant applications, flooded paddy conditions (Table IV); format: in vivo, Oryza sativa, (L.) Tebonnet
Procedure, shortened: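 Herbicidal effect is judged by eye on a 0–9 scale versus control, 3–4 weeks after dosing. Dosing is into flood water kept 1.5–3 cm over the soil, at about 0.0313–0.500 kg/ha in aqueous/acetone 50/50 v/v, on 3–5 cm weeds and 1.5–2.5-leaf rice seedlings.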

[4] = test system: CHEAL (Lambsquarters, Common); test: Preemergence herbicidal evaluation; format: in vivo, Chenopodium album; details: rated 4-5 weeks after treatment
Procedure, shortened: (§2)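 Herbicidal effect scored visually, 0-9, at 4 to 5 weeks against a control; compound applied preemergence by aqueous acetone spray to seeded soil at about 0.0156 to 0.500 kg/ha.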

[5] = test system: ORYSAT (Rice, Tebonnet); test: Preemergence herbicidal evaluation; format: in vivo, Oryza sativa, (L.) Tebonnet; details: rated 4-5 weeks after treatment
Procedure, shortened: as §2

[6] = test system: MOOVA (Monochoria); test: Postemergence weed control under flooded paddy conditions; format: in vivo, Monochoria vaginalis; details: postemergence weeds, 3-4 weeks after treatment
Procedure, shortened: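 Flood-water application, about 0.0313–0.500 kg/ha a.i. in aqueous/acetone 50/50 v/v; water depth 1.5–3 cm throughout. Weeds 3–5 cm, rice 1.5–2.5 leaf. Greenhouse; 0–9 visual rating vs control at 3–4 wk.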

[7] = test system: CASOB (Sicklepod); test: Postemergence herbicidal evaluation; format: in vivo, Cassia obtusifolia; details: for CASOB herbicidal rating: postemergence
Procedure, shortened: as §1

[8] = test system: CHEAL (Lambsquarters, Common); test: Postemergence herbicidal evaluation; format: in vivo, Chenopodium album; details: for CHEAL herbicidal rating: postemergence
Procedure, shortened: as §1

[9] = 0.1250 kg/ha, post-transplant rice, flooded paddy, rated 3-4 weeks after treatment
[10] = 0.2500 kg/ha, post-transplant rice, flooded paddy, rated 3-4 weeks after treatment
[11] = rate 0.1250 kg/ha, flooded paddy, post-transplant rice, 3-4 weeks after treatment
[12] = rate 0.2500 kg/ha, flooded paddy, post-transplant rice, 3-4 weeks after treatment

SMILES	Herbicidal rating ORYSAT (rice tolerance) [1, 9]	Herbicidal rating ORYSAT (rice tolerance) [1, 10]	Herbicidal rating ORYSAT (rice tolerance) [3, 11]	Herbicidal rating ORYSAT (rice tolerance) [3, 12]	Preemergence herbicidal rating CHEAL ([4]; rate 0.0313 kg/ha)	Preemergence herbicidal rating CHEAL ([4]; rate 0.0625 kg/ha)	Preemergence herbicidal rating CHEAL ([4]; rate 0.1250 kg/ha)	Preemergence herbicidal rating CHEAL ([4]; rate 0.2500 kg/ha)	Preemergence herbicidal rating ORYSAT ([5]; rate 0.0313 kg/ha)	Preemergence herbicidal rating ORYSAT ([5]; rate 0.0625 kg/ha)	Preemergence herbicidal rating ORYSAT ([5]; rate 0.1250 kg/ha)	Preemergence herbicidal rating ORYSAT ([5]; rate 0.2500 kg/ha)	Herbicidal rating MOOVA ([6]; rate 0.1250 kg/ha)	Herbicidal rating MOOVA ([6]; rate 0.2500 kg/ha)	Postemergence herbicidal rating TRZAWR ([2]; Rate 0.0158 kg/ha)	Postemergence herbicidal rating TRZAWR ([2]; Rate 0.0315 kg/ha)	Postemergence herbicidal rating TRZAWR ([2]; Rate 0.0630 kg/ha)	Herbicidal rating MOOVA ([6]; rate 0.0625 kg/ha)	Postemergence herbicidal rating CASOB ([7]; Rate 0.0158 kg/ha)	Postemergence herbicidal rating CASOB ([7]; Rate 0.0315 kg/ha)	also measured
O=C(O)CC1SC(=Nc2cc(N3C(=O)C4=C(CCCC4)C3=O)c(F)cc2Cl)N(CC(=O)O)C1=O (stereo not drawn) [Compound 48, 2-{[2-Chloro-5-(1-cyclohexene-1,2-dicarboximido)-4-fluorophenyl]imino}-4-oxo-3,5-thiazolidinediacetic acid]	4.0	6.0	4.0	6.0	9.0	9.0	9.0	9.0	0.0	0.0	0.0	3.0	3.0	6.0							Postemergence herbicidal rating TRZAWR ([2]; Rate 0.0156 kg/ha): 5.0; Postemergence herbicidal rating TRZAWR ([2]; Rate 0.0313 kg/ha): 5.0; Postemergence herbicidal rating TRZAWR ([2]; Rate 0.0625 kg/ha): 5.0; Preemergence herbicidal rating CHEAL ([4]; rate 0.0156 kg/ha): 9.0; Preemergence herbicidal rating ORYSAT ([5]; rate 0.0156 kg/ha): 0.0; Postemergence herbicidal rating CASOB ([7]; Rate 0.0156 kg/ha): 0.0; Postemergence herbicidal rating CASOB ([7]; Rate 0.0313 kg/ha): 2.0; Postemergence herbicidal rating CASOB ([7]; Rate 0.0625 kg/ha): 3.0; Postemergence herbicidal rating CHEAL ([8]; Rate 0.0156 kg/ha): 3.0; Postemergence herbicidal rating CHEAL ([8]; Rate 0.0313 kg/ha): 4.0; Postemergence herbicidal rating CHEAL ([8]; Rate 0.0625 kg/ha): 4.0
CCOC(=O)COc1ccccc1CC1S/C(=N/c2cc(-n3c(=O)cc(C(F)(F)F)n(C)c3=O)c(F)cc2Cl)N(CC(=O)OCC)C1=O (stereo not drawn) [Compound 42, 2-{{2-Chloro-5-[3,6-dihydro-3-methyl-2,6-dioxo-4-(trifluoromethyl)-1(2H)-pyrimidinyl]-4-fluoro-phenyl}imino}-5-(o-hydroxybenzyl)-4-oxo-3-thiazolidineacetic acid, ethyl ester, ester with ethyl glycolate]	0.0	0.0	0.0	0.0	0.0	1.0	3.0	9.0	0.0	0.0	0.0	0.0	9.0	9.0	3.5	3.5	3.5	9.0	4.0	3.0	Herbicidal rating ORYSAT (rice tolerance) ([1]; 0.0313 kg/ha, post-transplant rice, flooded paddy, rated 3-4 weeks after treatment): 0.0; Herbicidal rating ORYSAT (rice tolerance) ([1]; 0.0625 kg/ha, post-transplant rice, flooded paddy, rated 3-4 weeks after treatment): 0.0; Herbicidal rating ORYSAT (rice tolerance) ([3]; rate 0.0313 kg/ha, flooded paddy, post-transplant rice, 3-4 weeks after treatment): 0.0; Herbicidal rating ORYSAT (rice tolerance) ([3]; rate 0.0625 kg/ha, flooded paddy, post-transplant rice, 3-4 weeks after treatment): 0.0; Herbicidal rating MOOVA ([6]; rate 0.0313 kg/ha): 7.0; Postemergence herbicidal rating CASOB ([7]; Rate 0.0630 kg/ha): 7.0; Postemergence herbicidal rating CHEAL ([8]; Rate 0.0158 kg/ha): 3.0; Postemergence herbicidal rating CHEAL ([8]; Rate 0.0315 kg/ha): 9.0; Postemergence herbicidal rating CHEAL ([8]; Rate 0.0630 kg/ha): 6.0
Cn1c(C(F)(F)F)cc(=O)n(-c2cc(N=C3SCC(=O)N3CCC(=O)O)c(Cl)cc2F)c1=O [Compound 31, 2-{{2-Chloro-5-[3,6-dihydro-3-methyl-2,6-dioxo-4-(trifluoromethyl)-1(2H)-pyrimidinyl]-4-fluoro-phenyl}imino}-4-oxo-3-thiazolidinepropionic acid]						0.0	9.0	9.0		0.0	2.0	6.0	0.0	2.5	5.0	5.5	6.5	0.0	0.0	0.0	Herbicidal rating ORYSAT (rice tolerance) ([1]; in vivo): 0.0; Herbicidal rating ORYSAT (rice tolerance) ([3]; in vivo): 0.0; Postemergence herbicidal rating CASOB ([7]; Rate 0.0630 kg/ha): 0.0; Postemergence herbicidal rating CHEAL ([8]; Rate 0.0158 kg/ha): 0.0; Postemergence herbicidal rating CHEAL ([8]; Rate 0.0315 kg/ha): 2.0; Postemergence herbicidal rating CHEAL ([8]; Rate 0.0630 kg/ha): 7.0
CCOC(=O)CN1C(=O)C(=Cc2ccc(F)cc2)SC1=Nc1cc(-n2c(=O)cc(C(F)(F)F)n(C)c2=O)c(F)cc1Cl [Compound 21, Ethyl 2-{{2-chloro-5-[3,6-dihydro-3-methyl-2,6-dioxo-4-(trifluoromethyl)-1(2H)-pyrimidinyl]-4-fluorophenyl}imino}-5-(p-fluorobenzylidene)-4-oxo-3-thiazolidineacetate]																					Herbicidal rating ORYSAT (rice tolerance) ([1]; in vivo): 0.0; TRZAWR herbicidal rating ([2]; rate 0.0158 kg/ha): 2.5; TRZAWR herbicidal rating ([2]; rate 0.0315 kg/ha): 3.5; TRZAWR herbicidal rating ([2]; rate 0.0630 kg/ha): 3.5; Herbicidal rating ORYSAT (rice tolerance) ([3]; in vivo): 0.0; CHEAL preemergence herbicidal rating ([4]; rate 0.2500 kg/ha): 9.0; ORYSAT preemergence herbicidal rating ([5]; rate 0.2500 kg/ha): 0.0; Herbicidal rating MOOVA ([6]; rate 0.1160 kg/ha): 0.0; Herbicidal rating MOOVA ([6]; rate 0.2310 kg/ha): 0.0; Herbicidal rating MOOVA ([6]; rate 0.4630 kg/ha): 0.0; CASOB herbicidal rating ([7]; rate 0.0158 kg/ha): 0.0; CASOB herbicidal rating ([7]; rate 0.0315 kg/ha): 0.0; CASOB herbicidal rating ([7]; rate 0.0630 kg/ha): 0.0; CHEAL herbicidal rating ([8]; rate 0.0158 kg/ha): 2.0; CHEAL herbicidal rating ([8]; rate 0.0315 kg/ha): 5.0; CHEAL herbicidal rating ([8]; rate 0.0630 kg/ha): 7.0
